Patent US20260078120A1, “SUBSTITUTED PYRIDOPYRIMIDINONES” (MIRATI THERAPEUTICS, INC., priority 2022, published 2026)

How the values were obtained:
[1] = test system: T47D (PI3Kα H1047R mutant) cells; assay: CellTiter-Glo 2.0 luminescent cell viability assay, 72 hours, T47D cells; format: cell-based; details: Homo sapiens, T47D, 72 h, T47D (PI3Kα H1047R mutant) cells, CellTiter-Glo, approximately 72 hours; read-out: T47D (H1047R mutant) Viability IC50
In short: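 Viability was measured by CellTiter-Glo 2.0 luminescence after approximately 72 h of compound exposure at 37° C. Plating was 1000 cells per well the day before dosing, with ten 1:4 dilutions from a 10 µM top concentration. Values as percent of vehicle were fitted by variable-slope log(inhibitor) regression to give IC50.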

[2] = test system: SKBR3 (PI3Kα wild type) cells; assay: CellTiter-Glo 2.0 luminescent cell viability assay, 72 hours, SKBR3 cells; format: cell-based; details: Homo sapiens, SK-BR-3, 72 h, SKBR3 (PI3Kα wild type) cells, CellTiter-Glo, approximately 72 hours; read-out: SKBR3 (WT) Viability IC50
In short: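 Viability measured via CTG luminescence following roughly 72 hours of compound exposure at 37° C. Dosing used a 10 um starting concentration diluted 1:4 over 10 points; percent-of-vehicle data fitted with a variable-slope four-parameter model for IC50.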

Compound	IC50 [1]	IC50 [2]
Cc1cc([C@@H](C)Nc2ccccc2C(=O)O)c2nc(N3C[C@H]4C[C@@H]3C(F)(F)C4)c(C)c(=O)n2c1 [Example 11-228, 2-(((R)-1-(2-((1R,4S)-6,6-difluoro-2-azabicyclo[2.2.1]heptan-2-yl)-3,7-dimethyl-4-oxo-4H-pyrido[1,2-a]pyrimidin-9-yl)ethyl)amino)benzoic acid]	0.155 µM	> 10 µM
Cc1cc([C@@H](C)Nc2ccccc2C(=O)O)c2nc(N3C[C@H]4C[C@@H]3CC4(F)F)c(C#N)c(=O)n2c1 [Example 11-230, 2-(((R)-1-(3-cyano-2-((1R,4R)-5,5-difluoro-2-azabicyclo[2.2.1]heptan-2-yl)-7-methyl-4-oxo-4H-pyrido[1,2-a]pyrimidin-9-yl)ethyl)amino)benzoic acid]	0.201 µM	> 10 µM
Cc1cc([C@@H](C)Nc2ccccc2C(=O)O)c2nc(N3C[C@@H]4C[C@H]3CC4(F)F)c(C)c(=O)n2c1 [Example 11-231, 2-(((R)-1-(2-((1S,4S)-5,5-difluoro-2-azabicyclo[2.2.1]heptan-2-yl)-3,7-dimethyl-4-oxo-4H-pyrido[1,2-a]pyrimidin-9-yl)ethyl)amino)benzoic acid]	0.192 µM	> 10 µM
C#Cc1ccc(N[C@H](C)c2cc(C)cn3c(=O)cc(N4CCCCC4)nc23)c(C(=O)O)c1 [Example 11-232, (R)-5-ethynyl-2-((1-(7-methyl-4-oxo-2-(piperidin-1-yl)-4H-pyrido[1,2-a]pyrimidin-9-yl)ethyl)amino)benzoic acid]	3.28 µM	> 10 µM
Cc1cc([C@@H](C)Nc2ccccc2C(=O)O)c2nc(-c3cnn(-c4ccc(C#N)cc4)c3)c(C)c(=O)n2c1 [Example 11-233, (R)-2-((1-(2-(1-(4-cyanophenyl)-1H-pyrazol-4-yl)-3,7-dimethyl-4-oxo-4H-pyrido[1,2-a]pyrimidin-9-yl)ethyl)amino)benzoic acid]	0.212 µM	> 10 µM
Cc1cc([C@@H](C)Nc2ccccc2C(=O)O)c2nc(-c3cn(C)cn3)c(C)c(=O)n2c1 [Example 11-234, (R)-2-((1-(3,7-dimethyl-2-(1-methyl-1H-imidazol-4-yl)-4-oxo-4H-pyrido[1,2-a]pyrimidin-9-yl)ethyl)amino)benzoic acid]	0.999 µM	> 10 µM
Cc1cc([C@@H](C)Nc2ccccc2C(=O)O)c2nc(-c3c[nH]cn3)c(C)c(=O)n2c1 [Example 11-235, (R)-2-((1-(2-(1H-imidazol-4-yl)-3,7-dimethyl-4-oxo-4H-pyrido[1,2-a]pyrimidin-9-yl)ethyl)amino)benzoic acid]	3.6 µM	> 10 µM
Cc1cc([C@@H](C)Nc2ccccc2C(=O)O)c2nc(-c3cn(-c4ccc(C#N)cc4)cn3)c(C)c(=O)n2c1 [Example 11-236, (R)-2-((1-(2-(1-(4-cyanophenyl)-1H-imidazol-4-yl)-3,7-dimethyl-4-oxo-4H-pyrido[1,2-a]pyrimidin-9-yl)ethyl)amino)benzoic acid]	0.679 µM	> 10 µM
Cc1cc([C@@H](C)Nc2ccccc2C(=O)O)c2nc(-c3cn(-c4ccc(C#N)cc4)cn3)cc(=O)n2c1 [Example 11-237, (R)-2-((1-(2-(1-(4-cyanophenyl)-1H-imidazol-4-yl)-7-methyl-4-oxo-4H-pyrido[1,2-a]pyrimidin-9-yl)ethyl)amino)benzoic acid]	1.41 µM	> 10 µM
Cc1cc([C@@H](C)Nc2ccccc2C(=O)O)c2nc(-c3cccc(C(C)(C)C#N)c3)c(C)c(=O)n2c1 [Example 11-238, (R)-2-((1-(2-(3-(2-cyanopropan-2-yl)phenyl)-3,7-dimethyl-4-oxo-4H-pyrido[1,2-a]pyrimidin-9-yl)ethyl)amino)benzoic acid]	0.31 µM	> 10 µM
Cc1cc([C@@H](C)Nc2ccccc2C(=O)O)c2nc(-c3cccc(C(C)(C)C#N)c3)cc(=O)n2c1 [Example 11-239, (R)-2-((1-(2-(3-(2-cyanopropan-2-yl)phenyl)-7-methyl-4-oxo-4H-pyrido[1,2-a]pyrimidin-9-yl)ethyl)amino)benzoic acid]	2.97 µM	> 10 µM
Cc1cc([C@@H](C)Nc2ccccc2C(=O)O)c2nc(-c3cnn(-c4ccc(C#N)cc4)c3)cc(=O)n2c1 [Example 11-240, (R)-2-((1-(2-(1-(4-cyanophenyl)-1H-pyrazol-4-yl)-7-methyl-4-oxo-4H-pyrido[1,2-a]pyrimidin-9-yl)ethyl)amino)benzoic acid]	0.573 µM	3.23 µM
C#CC(Nc1ccccc1C(=O)O)c1cc(C)cn2c(=O)c(C)c(N3CCC(F)(F)CC3)nc12 (stereo not shown) [Example 11-241, 2-((1-(2-(4,4-difluoropiperidin-1-yl)-3,7-dimethyl-4-oxo-4H-pyrido[1,2-a]pyrimidin-9-yl)prop-2-yn-1-yl)amino)benzoic acid]	> 10 µM	> 10 µM
Cc1cc([C@@H](C)Nc2ccccc2C(=O)O)c2nc(Cl)c(C)c(=O)n2c1 [Example 11-242, (R)-2-((1-(2-chloro-3,7-dimethyl-4-oxo-4H-pyrido[1,2-a]pyrimidin-9-yl)ethyl)amino)benzoic acid]	> 10 µM	> 10 µM
Cc1cc([C@@H](C)Nc2ccccc2C(=O)O)c2nc(Cl)c(C#N)c(=O)n2c1 [Example 11-243, (R)-2-((1-(2-chloro-3-cyano-7-methyl-4-oxo-4H-pyrido[1,2-a]pyrimidin-9-yl)ethyl)amino)benzoic acid]	7.9 µM	> 10 µM
Cc1cc([C@@H](C)Nc2ccccc2C(=O)O)c2nc(C3CC3)c(C#N)c(=O)n2c1 [Example 11-244, (R)-2-((1-(3-cyano-2-cyclopropyl-7-methyl-4-oxo-4H-pyrido[1,2-a]pyrimidin-9-yl)ethyl)amino)benzoic acid]	0.116 µM	> 10 µM
Cc1cc([C@@H](C)Nc2ccccc2C(=O)O)c2nc(O[C@@H]3CCOC3)c(C)c(=O)n2c1 [Example 11-245, 2-(((R)-1-(3,7-dimethyl-4-oxo-2-(((R)-tetrahydrofuran-3-yl)oxy)-4H-pyrido[1,2-a]pyrimidin-9-yl)ethyl)amino)benzoic acid]	0.166 µM	> 10 µM
Cc1cc([C@@H](C)Nc2ccccc2C(=O)O)c2nc(O[C@H]3CCOC3)c(C)c(=O)n2c1 [Example 11-246, 2-(((R)-1-(3,7-dimethyl-4-oxo-2-(((S)-tetrahydrofuran-3-yl)oxy)-4H-pyrido[1,2-a]pyrimidin-9-yl)ethyl)amino)benzoic acid]	0.196 µM	> 10 µM
Cc1cc([C@@H](C)Nc2ccccc2C(=O)O)c2nc(O[C@@H]3CCOC3)c(C#N)c(=O)n2c1 [Example 11-247, 2-(((R)-1-(3-cyano-7-methyl-4-oxo-2-(((R)-tetrahydrofuran-3-yl)oxy)-4H-pyrido[1,2-a]pyrimidin-9-yl)ethyl)amino)benzoic acid]	1.54 µM	> 10 µM
Cc1cc([C@@H](C)Nc2ccccc2C(=O)O)c2nc(O[C@H]3CCOC3)c(C#N)c(=O)n2c1 [Example 11-248, 2-(((R)-1-(3-cyano-7-methyl-4-oxo-2-(((S)-tetrahydrofuran-3-yl)oxy)-4H-pyrido[1,2-a]pyrimidin-9-yl)ethyl)amino)benzoic acid]	2.2 µM	4.31 µM
